Measured values reported in PubChem BioAssay AID179 (DTP/NCI, 2004).
“And” between values parts separate entries of the source, which are not always exact repeats. Identical values can stand only once. The source made the active and inactive calls.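 The calls were made as follows: active = compounds giving half or more protection of infected cells from virus-caused growth loss, again on retest; inactive = the rest.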 Where a SMILES comes first, the peptide text is derived from it.

Test system: CEM cells HIV-1 protection, formazan growth assay
Assay: NCI AIDS Antiviral Assay
Conditions: for IC50: measured here: growth of uninfected CEM cells
Method in brief: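 CEM (human) cells, HIV-1 infected vs uninfected, 5-point dosing, formazan growth read-out. Retest threshold 50% protection.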

Compound | EC50 | IC50 | outcome
C/C(=N\NC(=S)N1CC2CCC(CC2)C1)c1nccs1 | > 115 µM | 0.363 µM | –
COc1cc(C(c2c(O)c3ccccc3oc2=O)c2c(O)c3ccccc3oc2=O)cc(OC)c1OC | > 200 µM | 93.3 µM | –
COC1=C(N)C(=O)c2nc(-c3nc(C(=O)O)c(C)c(-c4ccc(OC)c(OC)c4O)c3N)ccc2C1=O | > 4.9 µM | 0.00302 µM and 0.00191 µM | –
CC1C(=O)NC(=O)NC1=O | > 200 µM | > 200 µM | –
C/C(C(=O)O)=C(\C)c1ccccc1 | > 200 µM | > 200 µM | –
CCC(C)C(NC(=O)C(CCCN=C(N)N)NC(=O)C(CC(=O)O)NC(=O)C(Cc1cnc[nH]1)NC(=O)C(N)CC(C)C)C(=O)NC(C(=O)NC(CC(C)C)C(=O)NC(C(=O)NC(Cc1cnc[nH]1)C(=O)O)C(C)O)C(C)CC (stereo not drawn) (H-LHDRIILTH-OH; configuration not given here) | > 44.7 µM | > 44.7 µM | –
CSc1c(C#N)c(O)n(-c2ccc(C)cc2)c(=O)c1C#N | > 115 µM | 102 µM | –
O=C1CCC2(c3ccc(Cl)cc3)Nc3ncccc3N12 (stereo not drawn) | > 126 µM | 97.7 µM | –
CSC(SC)=C1C(=O)N(c2ccccc2)N=C1C | > 200 µM | 37.2 µM | –
CCN(CCN(CC)C(=O)NC)C(=O)NC | > 200 µM | > 200 µM | –
CN(C)C(=O)OC(Cn1cncn1)c1ccc(Cl)cc1Cl (stereo not drawn) | > 537 µM | 275 µM | –
COC1(c2cccs2)OC(=O)c2c([N+](=O)[O-])cccc21 (stereo not drawn) | – | – | inactive
COc1c2c(cc3nc4ccccc4nc13)CCC(C(C)(C)O)C2 (stereo not drawn) | – | – | inactive
CC1=N/C(=C\c2ccc(N(C)C)cc2)C(=O)O1 | > 81.3 µM | > 81.3 µM | –
Cn1c(=O)cc(C=Nc2ccc(C(=O)O)cc2)c2ccccc21 | > 200 µM | 1.32 µM | –
O=C1C(Cl)=C(N2CCN(C3=C(Cl)C(=O)c4ccccc4C3=O)CC2)C(=O)c2ccccc21 | > 7.76 µM | 1.32 µM | –
CCC1(c2ccccc2)NC(=O)N(C)C1=O (stereo not drawn) | > 200 µM | > 200 µM | –
O=C1C2C(C(=O)N1c1ccccc1)C1(Br)c3ccccc3C2(Br)C2C(=O)N(c3ccccc3)C(=O)C21 (stereo not drawn) | – | – | inactive
CN(C)c1ccc(/C=C(\NC(=O)c2ccccc2)C(=O)Nc2ccccc2C(=O)O)cc1 | > 100 µM | > 100 µM | –
NC1=NCC(CN2CCCC2)O1 (stereo not drawn) | > 200 µM | > 200 µM | –
C1CNCCNCCN1 | > 200 µM | > 200 µM | –
CC(C)=CC(Cc1ccccc1)S(=O)(=O)c1nc2ccccc2s1 (stereo not drawn) | > 200 µM | 10 µM | –

Compound | EC50 | IC50 | outcome
CC1=NN(C(=O)Cc2ccccc2)C(=O)/C1=C\c1cccc(O)c1 | > 22.4 µM | > 22.4 µM | –
CC1C2=C(C(=O)N1Cc1ccccc1)C(C1OC(COC(=O)c3ccccc3)C(OC(=O)c3ccccc3)C1OC(=O)c1ccccc1)C(=O)N(C)C2=O (stereo not drawn) | > 7.24 µM | > 7.24 µM | –
COc1cc(-c2cc(=O)c3cc(C)c(C)c(C(=O)O)c3o2)cc(OC)c1OC | – | – | inactive
COC(=O)C(Cn1cnc2c(Cl)nc(N)nc21)P(=O)(OC)OC (stereo not drawn) | > 692 µM | 37.2 µM | –
CC(=O)OC1=C(c2ccccc2)c2ccccc2OC1 | > 26.9 µM | > 26.9 µM | –
CC1(C)CCCC2(C)[C@@H]1CC[C@@]13CC(=O)[C@@](C)(CC[C@@H]21)C3 (stereo partly drawn) | > 91.2 µM | > 91.2 µM | –
c1ccc(C2=NC3OC2c2ccccc23)cc1 (stereo not drawn) | > 200 µM | > 200 µM | –
C[N+]12CN3CN(CP(C3)C1)C2 | > 832 µM | – | –
COc1cccc(CCNC(=O)Cc2ccccc2CCO)c1 | > 200 µM | > 200 µM | –
O=CN/C=C\c1cc(O)ccc1O | > 427 µM | 5.25 µM | –
CCCCCCCCCCCCCCCCCC(=O)OCC1OC(OC)C(NC(=O)N(CCCl)N=O)C(O)C1O (stereo not drawn) | > 8.71 µM | > 8.71 µM | –
C=CCn1c(=O)c2ccccc2[n+]2c(-c3cccc([N+](=O)[O-])c3)csc12 | > 200 µM | > 200 µM | –
Cc1nc2c3c(ncn2n1)Oc1c(c(-c2ccccc2)nn1-c1ccccc1)C3c1ccc(Cl)cc1 (stereo not drawn) | > 200 µM | > 200 µM | –
Cn1cc(NC(=O)c2cc(NC(=O)[C@@H]3CCC(N)=N3)c[nH]2)cc1C(=O)NCCC(=N)N | – | – | inactive
CCNC(=O)Sc1ccccc1C(=O)N[C@H](C)C(N)=O | 1.15 µM | 93.3 µM | –
NS(=O)(=O)c1ccc(N=Cc2ccccc2O)cc1 | > 200 µM | > 200 µM | –
COc1ccc(C(c2cc3c(cc2O)OCO3)N2CCOCC2)c(OC)c1 (stereo not drawn) | > 95.5 µM | 7.94 µM | –
COC(=O)C1(COCc2ccccc2)CCCC2OC21 (stereo not drawn) | – | – | inactive
Cc1nc(N)c(N2CCN(C(=O)O)CC2)c(=O)[nH]1 | > 200 µM | > 200 µM | –
CC(C)(Oc1ccc(C(=O)c2ccc(Cl)cc2)cc1Cl)C(=O)N1CCN(c2ccccc2)CC1 | > 20 µM | > 20 µM | –
COc1ccc(C2=NC(c3ccccc3)N3C(c4ccccc4)NC(c4ccccc4)C2C3c2ccccc2)cc1 (stereo not drawn) | – | – | inactive
Cc1cc(S(=O)(=O)Nc2n[nH]c(Nc3ccccc3)n2)c(SCC(=O)O)cc1Cl | > 200 µM | > 200 µM | –

Compound | EC50 | IC50 | outcome
C=C1OC(=O)[C@]2([C@@H](/C=C/C)C=CC(=O)[C@H]2O)[C@@H]1O | > 200 µM | > 200 µM | –
Cc1ccc(S(=O)(=O)NC(=O)n2ccnc2C)cc1 | > 891 µM | – | –
Cc1c(N2CCN(C)CC2)nc2ccc(Cl)cc2c1-c1ccccc1 | > 14.8 µM | > 14.8 µM | –
Cc1cc(NS(=O)(=O)c2ccc(NC(NC(=O)OC(C)C)(C(F)(F)F)C(F)(F)F)cc2)nc(C)n1 | > 200 µM | > 200 µM | –
Cn1nc(-c2ccccc2)c(C(=O)/C=C/c2ccccc2)c(N2CCCC2)c1=O | 12.6 µM | 52.5 µM | –
CCc1c(C#N)c(=O)[nH]c(=O)n1CCN1CCN(C(=O)NCCCCCCNC(=O)N2CCN(CCn3c(CC)c(C#N)c(=O)[nH]c3=O)CC2)CC1 | – | – | inactive
NC(Cc1ccc(OCc2ccccc2)cn1)C(=O)O (stereo not drawn) | > 200 µM | > 200 µM | –
COc1ccc2c(CCNC(C)=O)c(C(C)=O)[nH]c2c1 | – | – | inactive
CCO[C@@]12CCC3CC4CC[C@@](OCC)(O1)C4C32 (stereo partly drawn) | > 200 µM | > 200 µM | –
N#Cc1c(-c2ccccc2)cc(-c2ccccc2)n(C2OC(CO)C(O)C(O)C2O)c1=S (stereo not drawn) | > 200 µM | 15.1 µM and 26.9 µM | –
O=S1c2ccccc2SCSc2ccccc21 | > 200 µM | > 200 µM | –
COc1cc(C2C(Cl)C(=O)N2NC(=O)c2ccc(NC(C)=O)cc2)ccc1O (stereo not drawn) | > 200 µM | > 200 µM | –
CC12c3c4ccc(C=O)c3Oc3ccc(C=O)c(c31)Oc1ccc(C=O)c(c12)O4 | > 25.1 µM | 13.5 µM | –
CC1=CC(C)(C)NC(=S)N1c1ccc(N(C)C)cc1 | – | – | inactive
COc1ccc(/C(C#N)=C/c2cccc([N+](=O)[O-])c2)cc1 | > 200 µM | > 200 µM | –
NC1=NC(=O)C(CC(=O)Nc2ccc(Cl)cc2Cl)S1 (stereo not drawn) | > 794 µM | 372 µM | –
CC1C2C=CC1C(c1c3ccc(=O)c(O)c-3oc3c(O)c(O)ccc13)C2C(=O)O (stereo not drawn) | 2.04 µM | > 200 µM | –
COc1cccc2c1CCc1ccccc1CC2=O | > 53.7 µM | > 53.7 µM | –
CC(O)CCC(=O)c1ccoc1 (stereo not drawn) | > 1480 µM | > 1480 µM | –
COC(=O)c1ccccc1C1CN=NC12Cc1cc(C)ccc1C2=O (stereo not drawn) | > 200 µM | > 200 µM | –
O=[N+]([O-])c1ccc(/C=C/c2c[n+]([O-])nc3ccccc23)cc1 | > 200 µM | > 200 µM | –
CC(=O)N1c2ccccc2N(C(C)=O)C1c1ccc(C2N(C(C)=O)c3ccccc3N2C(C)=O)[nH]1 | – | – | inactive

Compound | EC50 | IC50 | outcome
NCCCCCS(=O)(=O)O | > 9330 µM | > 9330 µM | –
CC1(Cl)CC2OC3(Br)C=CC(C)(O)C2(CC1Br)C3(C)C (stereo not drawn) | > 102 µM | > 102 µM | –
Cn1cc(S(=O)(=O)NC(=O)Nc2ccc(Cl)cc2)c(=O)c2ccc(Cl)cc21 | > 200 µM | 36.3 µM | –
O=c1[nH][nH]c(=O)c2nc3c(nc12)c1nc2c(=O)[nH][nH]c(=O)c2nc1c1nc2c(=O)[nH][nH]c(=O)c2nc31 | – | – | inactive
O=C1CC(c2ccco2)C2(C(=O)NC(=O)NC2=O)C(c2ccco2)C1 (stereo not drawn) | > 200 µM | > 200 µM | –
CC1Oc2c(c(=O)oc3ccccc23)[C@@]1(C)CC1C[C@H](C)C(=O)O1 (stereo partly drawn) | > 200 µM | 24.5 µM | –
Cc1cc(C)nc(NS(=O)(=O)c2ccc(Nc3c4ccccc4nc4c(C(=O)Nc5ccc(S(=O)(=O)N=C(N)N)cc5)cccc34)cc2)n1 | 49 µM | 51.3 µM | –
CC(=O)OCC1OC(NC(=S)Nn2c(-c3ccccc3)nc3ccccc3c2=O)C(OC(C)=O)C(OC(C)=O)C1OC(C)=O (stereo not drawn) | > 200 µM | > 100 µM | –
O=C(Nc1ccc(C2=NCCN2)cc1)c1ccc(C(=O)Nc2ccc(C3=NCCN3)cc2)c(Cl)c1 | > 200 µM | 49 µM | –
Cc1ccc(S(=O)(=O)OC2CSS(=O)CC2OS(=O)(=O)c2ccc(C)cc2)cc1 (stereo not drawn) | > 200 µM | 9.33 µM | –
COC(=O)/N=[N+](\[O-])C(c1ccc(OC)cc1)C1CCCCC1 (stereo not drawn) | > 200 µM | 5.62 µM | –
CC1=NN(c2ccccc2)C(=O)CC1 | > 1320 µM | > 1320 µM | –
CN1C(=O)CC(CC(=O)C2CCCCC2=O)CC1=O (stereo not drawn) | > 200 µM | > 200 µM | –
CSc1c(S(C)=O)c2ccccc2n1C (stereo not drawn) | > 200 µM | > 200 µM | –
c1ccc2c(c1)c1c(n2CCOCCCN2CCCCC2)CCCC1 | > 200 µM | 5.37 µM | –
CN(C)[C@@H]1C(=O)C(C(=O)NCN2CCN(C(=N)N=C(N)N)CC2)=C(O)[C@@]2(O)C(=O)C3=C(O)c4c(O)cccc4[C@@](C)(O)[C@H]3C[C@@H]12 | > 37.2 µM | 0.257 µM | –
CC(C)(C)c1ccn[nH]1.CC(C)(C)c1ccn[nH]1.[Cl-].[Cl-].[O]=[V][O-] | > 200 µM | 35.5 µM | –
c1cc(-c2nc3sc(-c4ccncc4)nc3s2)ccn1 | > 24.5 µM | > 24.5 µM | –
CCN(CC)CC(C(=O)Nc1c(C)cccc1C)/C(C)=N/NC(N)=S (stereo not drawn) | > 37.2 µM | > 37.2 µM | –
Cn1ccc(C(=O)NCCOCCNC(=O)c2ccn(C)c(=O)c2O)c(O)c1=O | > 50.1 µM | > 50.1 µM | –
